Series [1] in a line: Association (partition) of the NBD amphiphiles with native membranes, NBD fluorescence. In kind it is physicochemical, High-Five insect cells. Particulars: for LogKP, association with the native membranes: 37 °C, simplified ATPase assay buffer; for KPW→M: aqueous phase to native membrane. How it is done:
The membranes were diluted to the chosen concentration with simplified ATPase assay buffer and warmed to 37 °C. The NBD amphiphiles were added from stocks in DMSO (final DMSO 1% v/v) by squirting the required volume into the membrane solution under gentle vortex. Fluorescence intensity was measured after 15 to 30 min incubation at 37 °C using a Cary Eclipse spectrofluorimeter (Varian, Singapore). The path length of the sample container was selected to guarantee that scattering at the excitation wavelength was smaller than 0.1 while maintaining a good signal/noise ratio (3, 5, or 10 mm).
The increase in fluorescence of the NBD amphiphiles when associated with the model membranes was well described by a simple partition (Equation (S3)). The low affinity of the less lipophilic amphiphiles for the native membranes required the use of high membrane concentrations, and the fluorescence was measured with the plate reader SpectraMax iD5 (Molecular Devices, Berkshire, UK), where the reading setup is not very sensitive to scatter. To guarantee that the high scatter intensity was not leading to artifacts in the measured fluorescence intensity of NBD–C4, titrations of NBD-C6 and NBD–C8 were also performed in the same plate. For these two latter amphiphiles, the results obtained for the partition coefficient were similar to those obtained for experiments with low scatter intensity. A small decrease in the fluorescence intensity from NBD–C8 was nevertheless observed at very high scatter intensities (OD ≥ 0.5), which was used to correct the signal from the less lipophilic amphiphiles, see Supplementary Information (Figure S5 and Equation (S4)). The molar volume considered for the lipid was 0.8 dm^3/mol, and 1.2 g/mL was considered for the density of the membrane proteins.
S3 – Partition of the NBD amphiphiles to lipid bilayers and native membranes The fluorescence increase that accompanies the association of the NBD amphiphiles with the model membra nes was well defined by a simple partition, equation S3. […]
where IfW and If M are respec ti vel y the fluorescence intensity when all fluorescent amphiphile is in the aqueous phase and ass oci ated with the membranes, LbK is the partition co eff icient P between the aqueous and the lipid bilayer, V is the molar vo l u m e of the lipid when in the lipid L bi l ayer, and [L] is the lipid concentration.
To characterize the association of the NBD amphiphiles with the native membranes the whole membrane vo lume was considere d, including the lipid bilayer and the membrane proteins. For the ca se of the less lipophilic amphiphiles NBD‐C4 and NBD‐C6, a sig nif ica nt scatter from the […]
both to the larger size of the vesicles (ca 1 µm diameter, [1]) and to the high refractive index of the native membranes. The magnitude of the scatter effect was quantified through the best fit […]
partition to the membranes at co n ce ntrations where scatter is not significant. The modified […]
where s is the scatter correction factor for a given concentration of native membranes, If W and IfM are respectively the fluorescence intensity when all fluorescent amphiphile is in the aqueous phase and associated with the membranes, WMK → is the partition coefficient between the P aqueous phase and the native membrane, V is the molar volume of the lipid when in the L membrane and [L] the molar concentration of the membrane lipids, V is the vo lume occupied P by 1 g of membrane protein (assuming a density of 1.2 g/mL) and [P] is the protein concentration in units of ma ss per volume.
Typical results obtained for the variation of the fluorescence intensity at 540 nm of the NBD‐Cn fluorophores equilibrated with increasing concentrations of native membranes, are shown in figure S3. The fluorescence intensity was measured in black 96 well plates with the plate reader […]
SpectraMax iD5. The NBD‐Cn concentrations we re 0.5 µM for NBD‐C8 , 1 µM for NBD‐C6, and 2 µM for NBD‐C4, and the total volume per well was 150 µL. […]

The target of series [2] is T1, mouse P–gp (mP–gp) (Mus musculus, UniProt P21447).
T1 construct: made in house; host or cells: High-Five insect cells (Invitrogen), recombinant baculovirus; total membrane vesicles
T1 sequence (P21447 whole entry): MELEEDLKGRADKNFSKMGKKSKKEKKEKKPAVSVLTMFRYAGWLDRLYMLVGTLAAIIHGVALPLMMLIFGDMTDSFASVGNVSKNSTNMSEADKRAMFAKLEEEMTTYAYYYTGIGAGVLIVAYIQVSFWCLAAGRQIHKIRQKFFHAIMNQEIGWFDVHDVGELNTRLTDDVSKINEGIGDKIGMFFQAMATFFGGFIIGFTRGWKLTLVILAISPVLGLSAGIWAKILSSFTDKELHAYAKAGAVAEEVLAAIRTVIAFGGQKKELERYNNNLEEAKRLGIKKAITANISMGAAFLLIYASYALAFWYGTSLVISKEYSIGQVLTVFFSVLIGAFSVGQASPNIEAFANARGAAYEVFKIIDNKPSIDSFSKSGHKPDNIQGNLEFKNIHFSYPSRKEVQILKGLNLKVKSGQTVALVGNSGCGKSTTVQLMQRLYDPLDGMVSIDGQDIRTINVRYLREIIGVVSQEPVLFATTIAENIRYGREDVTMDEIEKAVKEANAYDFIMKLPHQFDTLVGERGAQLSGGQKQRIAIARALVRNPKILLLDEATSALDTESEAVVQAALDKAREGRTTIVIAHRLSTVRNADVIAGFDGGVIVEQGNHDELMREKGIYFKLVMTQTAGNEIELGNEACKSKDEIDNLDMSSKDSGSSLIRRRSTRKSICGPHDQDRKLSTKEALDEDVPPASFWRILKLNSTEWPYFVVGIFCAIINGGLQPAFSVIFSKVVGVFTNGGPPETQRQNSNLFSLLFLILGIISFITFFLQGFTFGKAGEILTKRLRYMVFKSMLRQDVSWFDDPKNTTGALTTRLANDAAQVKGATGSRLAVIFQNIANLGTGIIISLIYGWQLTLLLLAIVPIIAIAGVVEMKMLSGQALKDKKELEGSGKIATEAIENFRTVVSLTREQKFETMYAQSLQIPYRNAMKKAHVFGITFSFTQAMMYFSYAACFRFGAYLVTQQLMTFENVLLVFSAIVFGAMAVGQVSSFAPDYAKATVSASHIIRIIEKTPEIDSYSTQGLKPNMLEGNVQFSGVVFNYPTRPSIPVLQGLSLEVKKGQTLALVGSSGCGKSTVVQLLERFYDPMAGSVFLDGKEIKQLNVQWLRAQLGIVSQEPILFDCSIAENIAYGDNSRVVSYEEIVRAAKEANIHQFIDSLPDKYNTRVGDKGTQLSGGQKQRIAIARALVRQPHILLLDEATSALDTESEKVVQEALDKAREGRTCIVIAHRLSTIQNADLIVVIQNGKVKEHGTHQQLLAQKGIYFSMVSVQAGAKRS
As to the kind of experiment: P–gp ATPase activity (vanadate-sensitive, end point Pi release) in native membranes. It is filed as biochemical. Particulars: Equation (S1), total modulator concentration; only activation for NBD–C4; constraint K1≤K2 for NBD–C8 and NBD–LysoMPE; [75% confidence interval]; read-out: K1, dissociation constant for P–gp activation.

[3] abbreviates: membrane volume = phospholipid bilayer and P–gp (binding to the protein P–gp only).
Setting [4] is: membrane volume = phospholipid bilayer and all proteins (binding to all membrane proteins with equal affinity).

In the case of `CCCCCCCCNc1ccc([N+](=O)[O-])c2nonc12` [NBD–C8], the “LogKP, association with the native membranes” value (shortened to “LogKP, association”) in series [1] came to 3.95 ± 0.14. In addition, the KPW→M in series [1] (setting [3]) is 2.2 × 10^4; in series [1] (setting [4]), 9.0 × 10^3. Moreover, the Kd in series [2] came out at 17 µM.
`CCCCCCCCCCCCCC(=O)OCC(O)COP(=O)(O)OCCNc1ccc([N+](=O)[O-])c2nonc12` (stereo not shown) [NBD–LysoMPE]: in series [1], the “LogKP, association” value was found to be 4.34 ± 0.25. In addition, the Kd in series [2] was determined as 13 µM.
For `CCCCNc1ccc([N+](=O)[O-])c2nonc12` [NBD–C4], the “LogKP, association” value in series [1] is 2.75 ± 0.20. Moreover, the KPW→M is reported as 1.4 × 10^3 in series [1] (setting [3]) and 5.7 × 10^2 in series [1] (setting [4]). In series [2], the Kd amounted to 84 µM.
